Laboratory results from ChEMBL document CHEMBL4825673, “Total and Semisyntheses of Polymyxin Analogues with 2-Thr or 10-Thr Modifications to Decipher the Structure-Activity Relationship and Improve the Antibacterial Activity” (J Med Chem, 2021).
Converted amounts (≈) assume the structure as drawn. Positions of bridges follow the written chain, without caps; N, C: chain ends. Non-standard residues stand in square brackets, D forms with d. Residues, ends and D or L forms follow the SMILES beside them. *: point of attachment. Octanoyl = CCCCCCCC(=O)*; Dab = NCC[C@H](N)C(=O)O

Assays:
Assay type in all cases: functional
Settings in all cases: read-out: MIC100
[1] = test system: Pseudomonas aeruginosa; experiment: Antibacterial activity against Pseudomonas aeruginosa PAO1 assessed as inhibition of bacterial growth incubated for 24 hrs by broth microdilution method
[2] = test system: Escherichia coli; experiment: Antibacterial activity against Escherichia coli assessed as inhibition of bacterial growth incubated for 24 hrs by broth microdilution method
[3] = test system: Klebsiella pneumoniae; experiment: Antibacterial activity against Klebsiella pneumoniae assessed as inhibition of bacterial growth incubated for 24 hrs by broth microdilution method
[4] = test system: Acinetobacter baumannii; experiment: Antibacterial activity against Acinetobacter baumannii assessed as inhibition of bacterial growth incubated for 24 hrs by broth microdilution method
[5] = test system: Pseudomonas aeruginosa; experiment: Antibacterial activity against Pseudomonas aeruginosa assessed as inhibition of bacterial growth incubated for 24 hrs by broth microdilution method
[6] = test system: Moraxella catarrhalis; experiment: Antibacterial activity against Moraxella catarrhalis assessed as inhibition of bacterial growth incubated for 24 hrs by broth microdilution method
[7] = test system: Escherichia coli; experiment: Antibacterial activity against Escherichia coli ECO+14-2 assessed as inhibition of bacterial growth incubated for 24 hrs by broth microdilution method
[8] = test system: Escherichia coli; experiment: Antibacterial activity against Escherichia coli ECO+14-3 assessed as inhibition of bacterial growth incubated for 24 hrs by broth microdilution method
[9] = test system: Escherichia coli; experiment: Antibacterial activity against Escherichia coli ECO-14-2 assessed as inhibition of bacterial growth incubated for 24 hrs by broth microdilution method
[10] = test system: Klebsiella pneumoniae; experiment: Antibacterial activity against Klebsiella pneumoniae KPN+14-8 assessed as inhibition of bacterial growth incubated for 24 hrs by broth microdilution method
[11] = test system: Klebsiella pneumoniae; experiment: Antibacterial activity against Klebsiella pneumoniae KPN+14-10 assessed as inhibition of bacterial growth incubated for 24 hrs by broth microdilution method
[12] = test system: Klebsiella pneumoniae; experiment: Antibacterial activity against Klebsiella pneumoniae KR15-2 assessed as inhibition of bacterial growth incubated for 24 hrs by broth microdilution method
[13] = test system: Acinetobacter baumannii; experiment: Antibacterial activity against Acinetobacter baumannii ABA15-4 assessed as inhibition of bacterial growth incubated for 24 hrs by broth microdilution method
[14] = test system: Acinetobacter baumannii; experiment: Antibacterial activity against Acinetobacter baumannii ABA15-5 assessed as inhibition of bacterial growth incubated for 24 hrs by broth microdilution method
[15] = test system: Acinetobacter baumannii; experiment: Antibacterial activity against Acinetobacter baumannii ABA15-6 assessed as inhibition of bacterial growth incubated for 24 hrs by broth microdilution method
[16] = test system: Acinetobacter baumannii; experiment: Antibacterial activity against Acinetobacter baumannii AR15-4 assessed as inhibition of bacterial growth incubated for 24 hrs by broth microdilution method
[17] = test system: Pseudomonas aeruginosa; experiment: Antibacterial activity against Pseudomonas aeruginosa PAE15-3 assessed as inhibition of bacterial growth incubated for 24 hrs by broth microdilution method
[18] = test system: Pseudomonas aeruginosa; experiment: Antibacterial activity against Pseudomonas aeruginosa PAE15-5 assessed as inhibition of bacterial growth incubated for 24 hrs by broth microdilution method
[19] = test system: Pseudomonas aeruginosa; experiment: Antibacterial activity against Pseudomonas aeruginosa PAE15-8 assessed as inhibition of bacterial growth incubated for 24 hrs by broth microdilution method
[20] = test system: Pseudomonas aeruginosa; experiment: Antibacterial activity against Pseudomonas aeruginosa PAE15-14 assessed as inhibition of bacterial growth incubated for 24 hrs by broth microdilution method
[21] = test system: Pseudomonas aeruginosa; experiment: Antibacterial activity against Pseudomonas aeruginosa PR15-1 assessed as inhibition of bacterial growth incubated for 24 hrs by broth microdilution method
[22] = test system: Pseudomonas aeruginosa; experiment: Antibacterial activity against Pseudomonas aeruginosa ATCC 27853 assessed as inhibition of bacterial growth incubated for 24 hrs by broth microdilution method
[23] = test system: Moraxella catarrhalis; experiment: Antibacterial activity against Moraxella catarrhalis BCA14-7 assessed as inhibition of bacterial growth incubated for 24 hrs by broth microdilution method
[24] = test system: Moraxella catarrhalis; experiment: Antibacterial activity against Moraxella catarrhalis BCA15-3 assessed as inhibition of bacterial growth incubated for 24 hrs by broth microdilution method

| MIC [1] [µg/mL] | MIC [2] [µg/mL] | MIC [3] [µg/mL] | MIC [4] [µg/mL] | MIC [5] [µg/mL] | MIC [6] [µg/mL] | MIC [7] [µg/mL] | MIC [8] [µg/mL] | MIC [9] [µg/mL] | MIC [10] [µg/mL] | MIC [11] [µg/mL] | MIC [12] [µg/mL] | MIC [13] [µg/mL] | MIC [14] [µg/mL] | MIC [15] [µg/mL] | MIC [16] [µg/mL] | MIC [17] [µg/mL] | MIC [18] [µg/mL] | MIC [19] [µg/mL] | MIC [20] [µg/mL] | SMILES | also measured |
| --- | --- | --- | --- | --- | --- | --- | --- | --- | --- | --- | --- | --- | --- | --- | --- | --- | --- | --- | --- | --- | --- |
| 2 (≈ 1.63 µM) | 0.5 (≈ 0.409 µM) | 1 (≈ 0.817 µM) | 0.25 (≈ 0.204 µM) | 0.25 (≈ 0.204 µM) | 8 (≈ 6.54 µM) | 1 (≈ 0.817 µM) | 0.5 (≈ 0.409 µM) | 0.5 (≈ 0.409 µM) | 4 (≈ 3.27 µM) | 2 (≈ 1.63 µM) | 1 (≈ 0.817 µM) | 0.5 (≈ 0.409 µM) | 0.25 (≈ 0.204 µM) | 0.5 (≈ 0.409 µM) | 0.25 (≈ 0.204 µM) | 0.5 (≈ 0.409 µM) | 0.5 (≈ 0.409 µM) | 0.5 (≈ 0.409 µM) | 0.5 (≈ 0.409 µM) | CCCCCc1ccc(CN[C@@H](CCN)C(=O)N[C@H](C(=O)N[C@@H](CCN)C(=O)N[C@H]2CCNC(=O)[C@H]([C@@H](C)O)NC(=O)[C@H](CCN)NC(=O)[C@H](CCN)NC(=O)[C@H](CC(C)C)NC(=O)[C@@H](Cc3ccccc3)NC(=O)[C@H](CCN)NC2=O)[C@@H](C)O)cc1 | MIC [21]: 0.5 µg/mL (≈ 0.409 µM); MIC [22]: 0.25 µg/mL (≈ 0.204 µM); MIC [23]: 8 µg/mL (≈ 6.54 µM); MIC [24]: 1 µg/mL (≈ 0.817 µM) |
| 4 (≈ 3.36 µM) | 0.25 (≈ 0.21 µM) | 2 (≈ 1.68 µM) | 0.03 (≈ 0.0252 µM) | 0.03 (≈ 0.0252 µM) | 16 (≈ 13.5 µM) | 2 (≈ 1.68 µM) | 0.25 (≈ 0.21 µM) | 0.25 (≈ 0.21 µM) | 8 (≈ 6.73 µM) | 2 (≈ 1.68 µM) | 2 (≈ 1.68 µM) | < 0.03 | 0.125 (≈ 0.105 µM) | < 0.03 | 0.06 (≈ 0.0504 µM) | 0.25 (≈ 0.21 µM) | 0.125 (≈ 0.105 µM) | 0.25 (≈ 0.21 µM) | 0.25 (≈ 0.21 µM) | CCCCCCCC(=O)N[C@@H](CCN)C(=O)N[C@H](C(=O)N[C@@H](CCN)C(=O)N[C@H]1CCNC(=O)[C@H]([C@@H](C)O)NC(=O)[C@H](CCN)NC(=O)[C@H](CCN)NC(=O)[C@H](CC(C)C)NC(=O)[C@@H](Cc2ccccc2)NC(=O)[C@H](CCN)NC1=O)[C@@H](C)O (Octanoyl-[Dab]T[Dab][Dab][Dab][dF]L[Dab][Dab]T; lactam 4-C) | MIC [21]: 0.25 µg/mL (≈ 0.21 µM); MIC [23]: 32 µg/mL (≈ 26.9 µM); MIC [24]: 1 µg/mL (≈ 0.841 µM) |
| 1 (≈ 0.732 µM) | 0.25 (≈ 0.183 µM) | 2 (≈ 1.46 µM) | 0.03 (≈ 0.022 µM) | 0.125 (≈ 0.0915 µM) | > 32 | 2 (≈ 1.46 µM) | 0.25 (≈ 0.183 µM) | 0.25 (≈ 0.183 µM) | 4 (≈ 2.93 µM) | 2 (≈ 1.46 µM) | 4 (≈ 2.93 µM) | 0.06 (≈ 0.0439 µM) | 0.06 (≈ 0.0439 µM) | 0.03 (≈ 0.022 µM) | 0.125 (≈ 0.0915 µM) | 0.5 (≈ 0.366 µM) | 0.25 (≈ 0.183 µM) | 0.5 (≈ 0.366 µM) | 0.25 (≈ 0.183 µM) | CC[C@H](C)CCCCC(=O)N[C@@H](CCN)C(=O)N[C@H](C(=O)N[C@@H](CCN)C(=O)N[C@H]1CCNC(=O)[C@H]([C@@H](C)O)NC(=O)[C@H](CCN)NC(=O)[C@H](CCN)NC(=O)[C@H](CC(C)C)NC(=O)[C@@H](Cc2ccccc2)NC(=O)[C@H](CCN)NC1=O)[C@@H](C)OC(=O)[C@@H](N)Cc1ccc(O)cc1 | MIC [21]: 0.5 µg/mL (≈ 0.366 µM); MIC [22]: 0.125 µg/mL (≈ 0.0915 µM); MIC [23]: 32 µg/mL (≈ 23.4 µM); MIC [24]: 1 µg/mL (≈ 0.732 µM) |
